Experimental data taken from patent US8524745B2 (Allergan, Inc., priority 2011, dated 2013).

Biological target: T1, CCR2 (Homo sapiens, UniProt P41597)
T1 construct: expressed in transfected cells
Assay: CCR2 calcium activity assay on FLIPR Tetra in HEK-Gqi5 cells stably expressing CCR2
Assay type: cell-based

T1 sequence (P41597 whole entry, species assumed): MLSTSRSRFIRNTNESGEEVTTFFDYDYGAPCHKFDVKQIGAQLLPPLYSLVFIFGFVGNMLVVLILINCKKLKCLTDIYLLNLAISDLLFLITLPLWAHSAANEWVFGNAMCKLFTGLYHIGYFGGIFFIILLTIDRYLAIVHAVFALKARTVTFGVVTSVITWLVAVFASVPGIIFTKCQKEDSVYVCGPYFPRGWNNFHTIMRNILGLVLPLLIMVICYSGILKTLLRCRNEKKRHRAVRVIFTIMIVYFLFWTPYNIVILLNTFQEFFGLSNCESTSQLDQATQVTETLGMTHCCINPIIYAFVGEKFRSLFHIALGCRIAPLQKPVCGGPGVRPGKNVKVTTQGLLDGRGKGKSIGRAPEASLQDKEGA

In order of falling “CCR2 % ANTAG” value:
1. Cn1sc(=O)c2cc(S(=O)(=O)Nc3c(Cl)cccc3NS(=O)(=O)c3cccs3)ccc21 [N-{2-chloro-6-[(2-thienylsulfonyl)amino]phenyl}-1-methyl-3-oxo-1,3-dihydro-2,1-benzisothiazole-5-sulfonamide]  106%
2. Cn1sc(=O)c2cc(S(=O)(=O)Nc3c(F)cccc3NS(=O)(=O)c3cccs3)ccc21 [N-{2-fluoro-6-[(2-thienylsulfonyl)amino]phenyl}-1-methyl-3-oxo-1,3-dihydro-2,1-benzisothiazole-5-sulfonamide]  105%
3. Cn1sc(=O)c2cc(S(=O)(=O)Nc3ccccc3NS(=O)(=O)c3ccco3)ccc21 [N-{2-[(2-furylsulfonyl)amino]phenyl}-1-methyl-3-oxo-1,3-dihydro-2,1-benzisothiazole-5-sulfonamide]  104%
4. COc1ccc(NS(=O)(=O)c2cccs2)c(NS(=O)(=O)c2ccc3c(c2)c(=O)sn3C)c1 [N-{5-methoxy-2-[(2-thienylsulfonyl)amino]phenyl}-1-methyl-3-oxo-1,3-dihydro-2,1-benzisothiazole-5-sulfonamide]  104%
5. Cn1sc(=O)c2cc(S(=O)(=O)Nc3ccc(Cl)cc3NS(=O)(=O)c3cccs3)ccc21 [N-{4-chloro-2-[(2-thienylsulfonyl)amino]phenyl}-1-methyl-3-oxo-1,3-dihydro-2,1-benzisothiazole-5-sulfonamide]  102%
6. Cn1sc(=O)c2cc(S(=O)(=O)Nc3cccc(Cl)c3NS(=O)(=O)c3cccs3)ccc21 [N-{3-chloro-2-[(2-thienylsulfonyl)amino]phenyl}-1-methyl-3-oxo-1,3-dihydro-2,1-benzisothiazole-5-sulfonamide]  100%
7. Cn1sc(=O)c2cc(S(=O)(=O)Nc3cc(Br)ccc3NS(=O)(=O)c3cccs3)ccc21 [N-{5-bromo-2-[(2-thienylsulfonyl)amino]phenyl}-1-methyl-3-oxo-1,3-dihydro-2,1-benzisothiazole-5-sulfonamide]  100%
8. Cn1sc(=O)c2cc(S(=O)(=O)Nc3cc(Cl)c(Cl)cc3NS(=O)(=O)c3cccs3)ccc21 [N-{4,5-dichloro-2-[(2-thienylsulfonyl)amino]phenyl}-1-methyl-3-oxo-1,3-dihydro-2,1-benzisothiazole-5-sulfonamide]  99%
9. Cn1sc(=O)c2cc(C(=O)Nc3cc(Cl)ccc3NS(=O)(=O)c3cccs3)ccc21 [N-{5-chloro-2-[(2-thienylsulfonyl)amino]phenyl}-1-methyl-3-oxo-1,3-dihydro-2,1-benzisothiazole-5-carboxamide]  99%
10. Cn1sc(=O)c2cc(S(=O)(=O)Nc3cc(Cl)ccc3NS(=O)(=O)c3cccs3)ccc21 [N-{5-chloro-2-[(2-thienylsulfonyl)amino]phenyl}-1-methyl-3-oxo-1,3-dihydro-2,1-benzisothiazole-5-sulfonamide]  98%
11. CCc1ccc(NS(=O)(=O)c2cccs2)c(NS(=O)(=O)c2ccc3c(c2)c(=O)sn3C)c1 [N-{5-ethyl-2-[(2-thienylsulfonyl)amino]phenyl}-1-methyl-3-oxo-1,3-dihydro-2,1-benzisothiazole-5-sulfonamide]  94%
12. Cc1cc(NS(=O)(=O)c2ccc3c(c2)c(=O)sn3C)c(NS(=O)(=O)c2cccs2)cc1C [N-{4,5-dimethyl-2-[(2-thienylsulfonyl)amino]phenyl}-1-methyl-3-oxo-1,3-dihydro-2,1-benzisothiazole-5-sulfonamide]  91%
13. Cc1cc(NS(=O)(=O)c2cccs2)c(NS(=O)(=O)c2ccc3c(c2)c(=O)sn3C)cc1Cl [N-{5-chloro-4-methyl-2-[(2-thienylsulfonyl)amino]phenyl}-1-methyl-3-oxo-1,3-dihydro-2,1-benzisothiazole-5-sulfonamide]  91%
14. Cn1sc(=O)c2cc(S(=O)(=O)Nc3cc(C(F)(F)F)c(Cl)cc3NS(=O)(=O)c3cccs3)ccc21 [N-{4-chloro-2-[(2-thienylsulfonyl)amino]-5-(trifluoromethyl)phenyl}-1-methyl-3-oxo-1,3-dihydro-2,1-benzisothiazole-5-sulfonamide]  87%
15. CC(C)c1ccc(NS(=O)(=O)c2ccc3c(c2)c(=O)sn3C)c(NS(=O)(=O)c2cccs2)c1 [N-{4-isopropyl-2-[(2-thienylsulfonyl)amino]phenyl}-1-methyl-3-oxo-1,3-dihydro-2,1-benzisothiazole-5-sulfonamide]  87%
16. CC(C)c1ccc(NS(=O)(=O)c2cccs2)c(NS(=O)(=O)c2ccc3c(c2)c(=O)sn3C)c1 [N-{5-isopropyl-2-[(2-thienylsulfonyl)amino]phenyl}-1-methyl-3-oxo-1,3-dihydro-2,1-benzisothiazole-5-sulfonamide]  85%
17. N,N-dimethyl-N-(4-{[(1-methyl-3-oxo-1,3-dihydro-2,1-benzisothiazol-5-yl)carbonyl]amino}benzyl)tetrahydro-2H-pyran-4-aminium  85%
18. Cn1sc(=O)c2cc(S(=O)(=O)Nc3cc(Cl)ccc3NCc3cccs3)ccc21 [N-{5-chloro-2-[(2-thienylmethyl)amino]phenyl}-1-methyl-3-oxo-1,3-dihydro-2,1-benzisothiazole-5-sulfonamide]  83%
19. CN(C)c1ccc(NS(=O)(=O)c2ccc3c(c2)c(=O)sn3C)c(NS(=O)(=O)c2cccs2)c1 [N-{4-(dimethylamino)-2-[(2-thienylsulfonyl)amino]phenyl}-1-methyl-3-oxo-1,3-dihydro-2,1-benzisothiazole-5-sulfonamide]  78%
20. COC(=O)c1ccc(NS(=O)(=O)c2cccs2)c(NS(=O)(=O)c2ccc3c(c2)c(=O)sn3C)c1 [methyl 3-{[(1-methyl-3-oxo-1,3-dihydro-2,1-benzisothiazol-5-yl)sulfonyl]amino}-4-[(2-thienylsulfonyl)amino]benzoate]  76%
21. Cc1cc(NS(=O)(=O)c2ccc3c(c2)c(=O)sn3C)c(NS(=O)(=O)c2cccs2)cc1Cl [N-{4-chloro-5-methyl-2-[(2-thienylsulfonyl)amino]phenyl}-1-methyl-3-oxo-1,3-dihydro-2,1-benzisothiazole-5-sulfonamide]  75%
22. Cn1sc(=O)c2cc(S(=O)(=O)Nc3ccccc3NS(=O)(=O)c3ccoc3)ccc21 [N-{2-[(3-furylsulfonyl)amino]phenyl}-1-methyl-3-oxo-1,3-dihydro-2,1-benzisothiazole-5-sulfonamide]  73%
23. COc1ccc(NS(=O)(=O)c2ccc3c(c2)c(=O)sn3C)c(NS(=O)(=O)c2cccs2)c1 [N-{4-methoxy-2-[(2-thienylsulfonyl)amino]phenyl}-1-methyl-3-oxo-1,3-dihydro-2,1-benzisothiazole-5-sulfonamide]  60%
24. Cn1sc(=O)c2cc(S(=O)(=O)Nc3cc(C#N)ccc3NS(=O)(=O)c3cccs3)ccc21 [N-{5-cyano-2-[(2-thienylsulfonyl)amino]phenyl}-1-methyl-3-oxo-1,3-dihydro-2,1-benzisothiazole-5-sulfonamide]  59%
25. Cn1sc(=O)c2cc(S(=O)(=O)Nc3cc(Cl)cnc3C(=O)N3CCC(=O)CC3)ccc21 [N-{5-chloro-2-[(4-oxopiperidin-1-yl)carbonyl]pyridin-3-yl}-1-methyl-3-oxo-1,3-dihydro-2,1-benzisothiazole-5-sulfonamide]  58%
26. COc1cccc(NS(=O)(=O)c2ccc3c(c2)c(=O)sn3C)c1NS(=O)(=O)c1cccs1 [N-{3-methoxy-2-[(2-thienylsulfonyl)amino]phenyl}-1-methyl-3-oxo-1,3-dihydro-2,1-benzisothiazole-5-sulfonamide]  52%
27. Cn1sc(=O)c2cc(S(=O)(=O)Nc3cc(Cl)cnc3NS(=O)(=O)c3cccs3)ccc21 [N-{5-chloro-2-[(2-thienylsulfonyl)amino]pyridin-3-yl}-1-methyl-3-oxo-1,3-dihydro-2,1-benzisothiazole-5-sulfonamide]  48%
28. Cn1sc(=O)c2cc(S(=O)(=O)Nc3ccc(C#N)cc3NS(=O)(=O)c3cccs3)ccc21 [N-{4-cyano-2-[(2-thienylsulfonyl)amino]phenyl}-1-methyl-3-oxo-1,3-dihydro-2,1-benzisothiazole-5-sulfonamide]  31%
29. COC(=O)c1ccc(NS(=O)(=O)c2ccc3c(c2)c(=O)sn3C)c(NS(=O)(=O)c2cccs2)c1 [methyl 4-{[(1-methyl-3-oxo-1,3-dihydro-2,1-benzisothiazol-5-yl)sulfonyl]amino}-3-[(2-thienylsulfonyl)amino]benzoate]  0%

Going from `Cn1sc(=O)c2cc(S(=O)(=O)Nc3ccccc3NS(=O)(=O)c3ccco3)ccc21` [N-{2-[(2-furylsulfonyl)amino]phenyl}-1-methyl-3-oxo-1,3-dihydro-2,1-benzisothiazole-5-sulfonamide] to `Cn1sc(=O)c2cc(S(=O)(=O)Nc3c(Cl)cccc3NS(=O)(=O)c3cccs3)ccc21` [N-{2-chloro-6-[(2-thienylsulfonyl)amino]phenyl}-1-methyl-3-oxo-1,3-dihydro-2,1-benzisothiazole-5-sulfonamide], the IC50 falls from 744 nM to 468 nM (1.6-fold). The second is the more potent here.

Going from `Cn1sc(=O)c2cc(S(=O)(=O)Nc3c(F)cccc3NS(=O)(=O)c3cccs3)ccc21` [N-{2-fluoro-6-[(2-thienylsulfonyl)amino]phenyl}-1-methyl-3-oxo-1,3-dihydro-2,1-benzisothiazole-5-sulfonamide] to `Cn1sc(=O)c2cc(S(=O)(=O)Nc3cccc(Cl)c3NS(=O)(=O)c3cccs3)ccc21` [N-{3-chloro-2-[(2-thienylsulfonyl)amino]phenyl}-1-methyl-3-oxo-1,3-dihydro-2,1-benzisothiazole-5-sulfonamide], the IC50 rises from 471 nM to 823 nM (1.7-fold).

First: Cn1sc(=O)c2cc(S(=O)(=O)Nc3cc(Cl)c(Cl)cc3NS(=O)(=O)c3cccs3)ccc21 [N-{4,5-dichloro-2-[(2-thienylsulfonyl)amino]phenyl}-1-methyl-3-oxo-1,3-dihydro-2,1-benzisothiazole-5-sulfonamide]
Second: Cc1cc(NS(=O)(=O)c2ccc3c(c2)c(=O)sn3C)c(NS(=O)(=O)c2cccs2)cc1C [N-{4,5-dimethyl-2-[(2-thienylsulfonyl)amino]phenyl}-1-methyl-3-oxo-1,3-dihydro-2,1-benzisothiazole-5-sulfonamide]
The IC50 of the first is 6.1-fold lower: 361 nM for the first, 2190 nM for the second.

First: CN(C)c1ccc(NS(=O)(=O)c2ccc3c(c2)c(=O)sn3C)c(NS(=O)(=O)c2cccs2)c1 [N-{4-(dimethylamino)-2-[(2-thienylsulfonyl)amino]phenyl}-1-methyl-3-oxo-1,3-dihydro-2,1-benzisothiazole-5-sulfonamide]
Second: Cn1sc(=O)c2cc(S(=O)(=O)Nc3cc(C(F)(F)F)c(Cl)cc3NS(=O)(=O)c3cccs3)ccc21 [N-{4-chloro-2-[(2-thienylsulfonyl)amino]-5-(trifluoromethyl)phenyl}-1-methyl-3-oxo-1,3-dihydro-2,1-benzisothiazole-5-sulfonamide]
The IC50 of the first is 2.4-fold higher: 1230 nM for the first, 522 nM for the second. The second is the more potent here.

`Cn1sc(=O)c2cc(S(=O)(=O)Nc3ccc(Cl)cc3NS(=O)(=O)c3cccs3)ccc21` [N-{4-chloro-2-[(2-thienylsulfonyl)amino]phenyl}-1-methyl-3-oxo-1,3-dihydro-2,1-benzisothiazole-5-sulfonamide] and `Cc1cc(NS(=O)(=O)c2ccc3c(c2)c(=O)sn3C)c(NS(=O)(=O)c2cccs2)cc1Cl` [N-{4-chloro-5-methyl-2-[(2-thienylsulfonyl)amino]phenyl}-1-methyl-3-oxo-1,3-dihydro-2,1-benzisothiazole-5-sulfonamide] are within 1.5-fold of each other in IC50: 393 nM for the first, 311 nM for the second.

`CC(C)c1ccc(NS(=O)(=O)c2ccc3c(c2)c(=O)sn3C)c(NS(=O)(=O)c2cccs2)c1` [N-{4-isopropyl-2-[(2-thienylsulfonyl)amino]phenyl}-1-methyl-3-oxo-1,3-dihydro-2,1-benzisothiazole-5-sulfonamide] and `COc1ccc(NS(=O)(=O)c2ccc3c(c2)c(=O)sn3C)c(NS(=O)(=O)c2cccs2)c1` [N-{4-methoxy-2-[(2-thienylsulfonyl)amino]phenyl}-1-methyl-3-oxo-1,3-dihydro-2,1-benzisothiazole-5-sulfonamide] are within 1.5-fold of each other in IC50: 886 nM for the first, 1300 nM for the second.

Compared with `Cn1sc(=O)c2cc(S(=O)(=O)Nc3cc(Br)ccc3NS(=O)(=O)c3cccs3)ccc21` [N-{5-bromo-2-[(2-thienylsulfonyl)amino]phenyl}-1-methyl-3-oxo-1,3-dihydro-2,1-benzisothiazole-5-sulfonamide], `Cn1sc(=O)c2cc(S(=O)(=O)Nc3cc(Cl)ccc3NCc3cccs3)ccc21` [N-{5-chloro-2-[(2-thienylmethyl)amino]phenyl}-1-methyl-3-oxo-1,3-dihydro-2,1-benzisothiazole-5-sulfonamide] is 2-fold higher in IC50: 537 nM for the first, 1080 nM for the second.

Compared with `Cn1sc(=O)c2cc(S(=O)(=O)Nc3cc(Cl)ccc3NS(=O)(=O)c3cccs3)ccc21` [N-{5-chloro-2-[(2-thienylsulfonyl)amino]phenyl}-1-methyl-3-oxo-1,3-dihydro-2,1-benzisothiazole-5-sulfonamide], `Cn1sc(=O)c2cc(S(=O)(=O)Nc3cc(Cl)cnc3NS(=O)(=O)c3cccs3)ccc21` [N-{5-chloro-2-[(2-thienylsulfonyl)amino]pyridin-3-yl}-1-methyl-3-oxo-1,3-dihydro-2,1-benzisothiazole-5-sulfonamide] is 4.3-fold higher in IC50: 234 nM for the first, 1010 nM for the second. The first is the more potent here.

First: Cc1cc(NS(=O)(=O)c2cccs2)c(NS(=O)(=O)c2ccc3c(c2)c(=O)sn3C)cc1Cl [N-{5-chloro-4-methyl-2-[(2-thienylsulfonyl)amino]phenyl}-1-methyl-3-oxo-1,3-dihydro-2,1-benzisothiazole-5-sulfonamide]
Second: Cn1sc(=O)c2cc(S(=O)(=O)Nc3cc(C#N)ccc3NS(=O)(=O)c3cccs3)ccc21 [N-{5-cyano-2-[(2-thienylsulfonyl)amino]phenyl}-1-methyl-3-oxo-1,3-dihydro-2,1-benzisothiazole-5-sulfonamide]
The IC50 of the first is 5.1-fold lower: 531 nM for the first, 2720 nM for the second.

Compared with `CCc1ccc(NS(=O)(=O)c2cccs2)c(NS(=O)(=O)c2ccc3c(c2)c(=O)sn3C)c1` [N-{5-ethyl-2-[(2-thienylsulfonyl)amino]phenyl}-1-methyl-3-oxo-1,3-dihydro-2,1-benzisothiazole-5-sulfonamide], `CC(C)c1ccc(NS(=O)(=O)c2cccs2)c(NS(=O)(=O)c2ccc3c(c2)c(=O)sn3C)c1` [N-{5-isopropyl-2-[(2-thienylsulfonyl)amino]phenyl}-1-methyl-3-oxo-1,3-dihydro-2,1-benzisothiazole-5-sulfonamide] is 4.6-fold lower in IC50: 1940 nM for the first, 425 nM for the second. The second is the more potent here.

Going from `COc1ccc(NS(=O)(=O)c2cccs2)c(NS(=O)(=O)c2ccc3c(c2)c(=O)sn3C)c1` [N-{5-methoxy-2-[(2-thienylsulfonyl)amino]phenyl}-1-methyl-3-oxo-1,3-dihydro-2,1-benzisothiazole-5-sulfonamide] to `COC(=O)c1ccc(NS(=O)(=O)c2cccs2)c(NS(=O)(=O)c2ccc3c(c2)c(=O)sn3C)c1` [methyl 3-{[(1-methyl-3-oxo-1,3-dihydro-2,1-benzisothiazol-5-yl)sulfonyl]amino}-4-[(2-thienylsulfonyl)amino]benzoate], the IC50 rises from 1410 nM to 2410 nM (1.7-fold). The first is the more potent here.

Compared with `COC(=O)c1ccc(NS(=O)(=O)c2ccc3c(c2)c(=O)sn3C)c(NS(=O)(=O)c2cccs2)c1` [methyl 4-{[(1-methyl-3-oxo-1,3-dihydro-2,1-benzisothiazol-5-yl)sulfonyl]amino}-3-[(2-thienylsulfonyl)amino]benzoate], “N,N-dimethyl-N-(4-{[(1-methyl-3-oxo-1,3-dihydro-2,1-benzisothiazol-5-yl)carbonyl]amino}benzyl)tetrahydro-2H-pyran-4-aminium” is lower in IC50: > 8300 nM for the first, 1190 nM for the second.
